According to patent US10167279B2 (NOVARTIS AG, priority 2014, dated 2019):

Target: C-Raf FL (Homo sapiens (Human), UniProt P04049, Y340E/Y341E)
Experiment: In vitro Raf activity determination (Alpha Screen, phospho-MEK), C-Raf FL (full length, Y340E/Y341E)
Type: biochemical
Conditions: ATP 1 μM; 60 min pre-incubation; 1 hour reaction; column head does not say FL or TR
Text: The activity of a compound according to the present invention can be assessed by well-known in vitro & in vivo methods. Raf inhibition data provided herein was obtained using the following procedures.
Sf9 cells co-expressing both proteins were lysed and subjected to immobilized nickel chromatography and eluted with Imidazole. A second column (StrepII binding column) was used and eluted with desthiobiotin. Protein Tags were removed using Prescission enzyme and the protein was further purified using a flowthrough step to remove tags.
C-Raf TR refers to a truncated C-Raf protein, a Δ1-324 deletion mutant. C-Raf FL refers to the full-length C-Raf protein.
Full length MEK1 with an inactivating K97R ATP binding site mutation is utilized as a RAF substrate. The MEK1 cDNA was subcloned with an N-terminal (his)6 tag into a vector for E. Coli expression. The MEK1 substrate was purified from E. Coli lysate by nickel affinity chromatography followed by anion exchange. The final MEK1 preparation was biotinylated (Pierce EZ-Link Sulfo-NHS-LC-Biotin) and concentrated.
Assay protocol: Raf and biotinylated Mek (kinase dead) were combined at 2× final concentrations in assay buffer (50 mM Tris, pH 7.5, 15 mM MgCl2, 0.01% BSA and 1 mM DTT) and dispensed […] per well in assay plates (Greiner white 384 well assay plates #781207) containing […] of 40× of a Raf kinase inhibitor test compound diluted in 100% DMSO. The plate was incubated for 60 minutes at room temperature. […] The reactions were stopped and the phosphorylated product was measured using a rabbit anti-p-MEK (Cell Signaling, #9121) antibody and the Alpha Screen IgG (ProteinA) detection Kit (PerkinElmer #6760617R), by the addition of […] to the well of a mixture of the antibody (1:2000 dilution) and detection beads (1:2000 dilution of both beads) in Stop/bead buffer (25 mM EDTA, 50 mM Tris, pH 7.5, 0.01% Tween20). The additions were carried out under dark conditions to protect the detection beads from light. A lid was placed on top of the plate and incubated for 1 hour at room temperature, after which the luminescence was read on a PerkinElmer Envision instrument. The concentration of each compound for 50% inhibition (IC50) was calculated by non-linear regression using XL Fit data analysis software.

Sequence of C-Raf FL (P04049 whole entry Y340E/Y341E): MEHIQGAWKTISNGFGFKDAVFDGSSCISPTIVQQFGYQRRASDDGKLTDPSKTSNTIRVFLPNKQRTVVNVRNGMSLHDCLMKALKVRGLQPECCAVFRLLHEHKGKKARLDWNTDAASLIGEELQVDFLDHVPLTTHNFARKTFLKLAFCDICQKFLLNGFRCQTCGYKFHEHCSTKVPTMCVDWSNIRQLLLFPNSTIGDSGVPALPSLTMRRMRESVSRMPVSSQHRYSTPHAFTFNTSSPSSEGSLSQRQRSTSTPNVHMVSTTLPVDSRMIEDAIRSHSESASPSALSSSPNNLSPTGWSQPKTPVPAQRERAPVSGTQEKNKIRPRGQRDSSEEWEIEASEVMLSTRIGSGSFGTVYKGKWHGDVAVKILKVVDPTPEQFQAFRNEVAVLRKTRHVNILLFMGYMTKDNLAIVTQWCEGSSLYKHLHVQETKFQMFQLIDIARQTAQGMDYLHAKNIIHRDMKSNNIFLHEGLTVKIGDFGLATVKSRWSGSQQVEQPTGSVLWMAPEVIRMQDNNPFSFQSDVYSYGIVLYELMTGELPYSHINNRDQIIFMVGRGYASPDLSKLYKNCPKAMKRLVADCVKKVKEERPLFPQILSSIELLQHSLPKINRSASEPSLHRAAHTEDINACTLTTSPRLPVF
Sequence of C-Raf FL (P63104 whole entry partner): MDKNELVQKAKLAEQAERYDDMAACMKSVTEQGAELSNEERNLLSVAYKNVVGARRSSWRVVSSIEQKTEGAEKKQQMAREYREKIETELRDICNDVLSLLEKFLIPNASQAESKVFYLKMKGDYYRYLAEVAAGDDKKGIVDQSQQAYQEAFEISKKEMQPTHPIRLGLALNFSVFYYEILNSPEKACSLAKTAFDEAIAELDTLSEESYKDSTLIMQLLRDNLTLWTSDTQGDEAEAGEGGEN

| Structure (SMILES) | IC50 [nM] |
| --- | --- |
| Cc1ncc(NC(=O)c2ccnc(C(F)(F)F)c2)cc1-c1cc(OCCO)nc(C2(F)COC2)c1 [Example 51, N-(2′-(3-fluorooxetan-3-yl)-6′-(2-hydroxyethoxy)-2-methyl-[3,4′-bipyridin]-5-yl)-2-(trifluoromethyl)isonicotin-amide] | 2.79 |
| Cc1ncc(NC(=O)c2cccc(C(F)(F)F)c2)cc1-c1cc(OCCO)nc(C2(F)COC2)c1 [Example 52, N-(2′-(3-fluorooxetan-3-yl)-6′-(2-hydroxyethoxy)-2-methyl-[3,4′-bipyridin]-5-yl)-3-(trifluoromethyl)benzamide] | 2.15 |
| Cc1ccc(NC(=O)c2ccnc(C(F)F)c2)cc1-c1cc(OCCO)nc(C2(F)COC2)c1 [Example 53] | 0.624 |
| Cc1ccc(NC(=O)c2ccnc(C(C)(F)F)c2)cc1-c1cc(OCCO)nc(C2(F)COC2)c1 [Example 54, 2-(1,1-difluoroethyl)-N-(3-(2-(3-fluorooxetan-3-yl)-6-(2-hydroxyethoxy)pyridin-4-yl)-4-methylphenyl)isonicotin-amide] | 0.211 |
| Cc1ccc(NC(=O)c2ccnc(C(F)F)c2)cc1-c1cc(OCCO)nc(C2(CF)COC2)c1 [Example 55, 2-(difluoromethyl)-N-(3-(2-(3-(fluoromethyl)oxetan-3-yl)-6-(2-hydroxyethoxy)pyridin-4-yl)-4-methylphenyl)isonicotin-amide] | 0.0747 |
| Cc1ccc(NC(=O)c2ccnc(C(C)(F)F)c2)cc1-c1cc(OCCO)nc(C2(CF)COC2)c1 [Example 56, 2-(1,1-difluoroethyl)-N-(3-(2-(3-(fluoromethyl)oxetan-3-yl)-6-(2-hydroxyethoxy)pyridin-4-yl)-4-methylphenyl)isonicotin-amide] | 0.281 |
| Cc1ccc(NC(=O)c2ccnc(C(F)(F)F)c2)cc1-c1cc(OCCO)nc(C2(CF)COC2)c1 [Example 57, N-(3-(2-(3-(fluoromethyl)oxetan-3-yl)-6-(2-hydroxyethoxy)pyridin-4-yl)-4-methylphenyl)-2-(trifluoromethyl)isonicotin-amide] | 0.149 |
| Cc1ccc(NC(=O)c2ccnc(C(F)(F)F)c2)cc1-c1cc(OCCO)nc(C2(C(F)F)COC2)c1 [Example 58, N-(3-(2-(3-(difluoromethyl)oxetan-3-yl)-6-(2-hydroxyethoxy)pyridin-4-yl)-4-methylphenyl)-2-(trifluoromethyl)isonicotin-amide] | 0.0155 |
| COC1(c2cc(-c3cc(NC(=O)c4ccnc(C(F)(F)F)c4)ccc3C)cnc2OCCO)COC1 [Example 59, N-(3-(6-(2-hydroxyethoxy)-5-(3-methoxyoxetan-3-yl)pyridin-3-yl)-4-methylphenyl)-2-(trifluoromethyl)isonicotin-amide] | 0.103 |
| COC1(c2cc(-c3cc(NC(=O)c4ccnc(C(C)(F)F)c4)ccc3C)cnc2OCCO)COC1 [Example 60, 2-(1,1-difluoroethyl)-N-(3-(6-(2-hydroxyethoxy)-5-(3-methoxyoxetan-3-yl)pyridin-3-yl)-4-methylphenyl)isonicotin-amide] | 0.203 |
| COC1(c2cc(-c3cc(NC(=O)c4ccnc(C(C)(C)F)c4)cnc3C)cnc2OCCO)COC1 [Example 61, 2-(2-fluoropropan-2-yl)-N-(6′-(2-hydroxyethoxy)-5′-(3-methoxyoxetan-3-yl)-2-methyl-[3,3′-bipyridin]-5-yl)isonicotinamide] | 1.32 |
| COc1ncc(-c2cc(NC(=O)c3ccnc(C(C)(C)C#N)c3)cnc2C)cc1C1(F)COC1 [Example 80, 2-(2-cyanopropan-2-yl)-N-(5′-(3-fluorooxetan-3-yl)-6′-methoxy-2-methyl-[3,3′-bipyridin]-5-yl)isonicotinamide] | 2 |
| Cc1ncc(NC(=O)c2cccc(C(F)(F)F)c2)cc1-c1cc(OCCO)nc(C2(CF)COC2)c1 [Example 132, N-(2′-(3-(fluoromethyl)oxetan-3-yl)-6′-(2-hydroxyethoxy)-2-methyl-[3,4′-bipyridin]-5-yl)-3-(trifluoromethyl)benzamide] | 0.0853 |
| Cc1ncc(NC(=O)c2ccnc(C(C)(C)F)c2)cc1-c1cc(OCCO)nc(C2(CF)COC2)c1 [Example 133, N-(2′-(3-(fluoromethyl)oxetan-3-yl)-6′-(2-hydroxyethoxy)-2-methyl-[3,4′-bipyridin]-5-yl)-2-(2-fluoropropan-2-yl)isonicotinamide] | 1.28 |
| Cc1ccc(NC(=O)c2cccc(C(F)(F)F)c2)cc1-c1cc(C2(O)COC2)cc(C2(F)COC2)c1 [Example 134, N-(3′-(3-fluorooxetan-3-yl)-5′-(3-hydroxyoxetan-3-yl)-6-methyl-[1,1′-biphenyl]-3-yl)-3-(trifluoromethyl)benzamide] | 0.566 |
| Cc1ccc(NC(=O)c2ccnc(C(F)(F)F)c2)cc1-c1cc(C2(O)COC2)cc(C2(F)COC2)c1 [Example 135, N-(3′-(3-fluorooxetan-3-yl)-5′-(3-hydroxyoxetan-3-yl)-6-methyl-[1,1′-biphenyl]-3-yl)-2-(trifluoromethyl)isonicotin-amide] | 0.605 |
| Cc1ccc(NC(=O)c2ccnc(C(C)(F)F)c2)cc1-c1cc(C2(O)COC2)cc(C2(F)COC2)c1 [Example 136, 2-(1,1-difluoroethyl)-N-(3′-(3-fluorooxetan-3-yl)-5′-(3-hydroxyoxetan-3-yl)-6-methyl-[1,1′-biphenyl]-3-yl)isonicotinamide] | 0.177 |
| Cc1ccc(NC(=O)c2ccnc(C(C)(C)F)c2)cc1-c1cc(C2(O)COC2)cc(C2(F)COC2)c1 [Example 137, N-(3′-(3-fluorooxetan-3-yl)-5′-(3-hydroxyoxetan-3-yl)-6-methyl-[1,1′-biphenyl]-3-yl)-2-(2-fluoropropan-2-yl)isonicotinamide] | 3.32 |
| Cc1ccc(NC(=O)c2ccnc(C(C)(C)C#N)c2)cc1-c1cc(C2(O)COC2)cc(C2(F)COC2)c1 [Example 138, 2-(2-cyanopropan-2-yl)-N-(3′-(3-fluorooxetan-3-yl)-5′-(3-hydroxyoxetan-3-yl)-6-methyl-[1,1′-biphenyl]-3-yl)isonicotinamide] | 2.19 |
| Cc1ncc(NC(=O)c2cccc(C(F)(F)F)c2)cc1-c1cc(C2(O)COC2)cc(C2(F)COC2)c1 [Example 139, N-(5-(3-(3-fluorooxetan-3-yl)-5-(3-hydroxyoxetan-3-yl)phenyl)-6-methylpyridin-3-yl)-3-(trifluoromethyl)benzamide] | 1.18 |
| Cc1ncc(NC(=O)c2ccnc(C(C)(F)F)c2)cc1-c1cc(C2(O)COC2)cc(C2(F)COC2)c1 [Example 141, 2-(1,1-difluoroethyl)-N-(5-(3-(3-fluorooxetan-3-yl)-5-(3-hydroxyoxetan-3-yl)phenyl)-6-methylpyridin-3-yl)isonicotinamide] | 5.9 |
| Cc1ncc(NC(=O)c2ccnc(C(C)(C)F)c2)cc1-c1cc(C2(O)COC2)cc(C2(F)COC2)c1 [Example 142, N-(5-(3-(3-fluorooxetan-3-yl)-5-(3-hydroxyoxetan-3-yl)phenyl)-6-methylpyridin-3-yl)-2-(2-fluoropropan-2-yl)isonicotinamide] | 11.2 |
| Cc1ncc(NC(=O)c2ccnc(C(C)(C)C#N)c2)cc1-c1cc(C2(O)COC2)cc(C2(F)COC2)c1 [Example 143, 2-(2-cyanopropan-2-yl)-N-(5-(3-(3-fluorooxetan-3-yl)-5-(3-hydroxyoxetan-3-yl)phenyl)-6-methylpyridin-3-yl)isonicotinamide] | 4.36 |
| CCOc1ncc(-c2cc(NC(=O)c3cc(C(F)(F)F)cc(C(C)(C)N)n3)ccc2C)cc1C1(O)COC1 [Example 147, 6-(2-aminopropan-2-yl)-N-(3-(6-ethoxy-5-(3-hydroxyoxetan-3-yl)pyridin-3-yl)-4-methylphenyl)-4-(trifluoromethyl)picolin-amide] | 4.51 |
| COc1ncc(-c2cc(NC(=O)c3cc(C(F)(F)F)cc(C(C)(C)N)n3)cnc2C)cc1C1(C(F)F)COC1 [Example 148, 6-(2-aminopropan-2-yl)-N-(5′-(3-(difluoromethyl)oxetan-3-yl)-6′-methoxy-2-methyl-[3,3′-bipyridin]-5-yl)-4-(trifluoromethyl)picolin-amide] | 9.2 |
| COc1ncc(-c2cc(NC(=O)c3cc(C(F)(F)F)cc(C(C)(C)N)n3)ccc2C)cc1C1(C(F)F)COC1 [Example 149, 6-(2-aminopropan-2-yl)-N-(3-(5-(3-(difluoromethyl)oxetan-3-yl)-6-methoxypyridin-3-yl)-4-methylphenyl)-4-(trifluoromethyl)picolin-amide] | 0.871 |
| COc1ncc(-c2cc(C(=O)Nc3cc(C(C)(C)N)cc(C(F)(F)F)c3)ccc2C)cc1C1(O)COC1 [Example 150, N-(3-(2-aminopropan-2-yl)-5-(trifluoromethyl)phenyl)-3-(5-(3-hydroxyoxetan-3-yl)-6-methoxypyridin-3-yl)-4-methylbenzamide] | 3 |
